This note sets out measurements from ChEMBL document CHEMBL2417377, “Hit-to-lead optimization and kinase selectivity of imidazo[1,2-a]quinoxalin-4-amine derived JNK1 inhibitors” (Bioorg Med Chem Lett, 2013).

Common to all, as to details: PC-3
The target of assay [1] is Dual specificity mitogen-activated protein kinase kinase 1 (Homo sapiens) (UniProt Q02750). Nature of the assay: Inhibition of MAP2K1 in human PC3 cell lysates at 10 uM using desthiobiotin-tagged ATP probe AX9989 followed by trypsinization by LC/MS analysis.
Assay [2] addresses Tyrosine-protein kinase Yes (Homo sapiens) (UniProt P07947). Nature of the assay: Inhibition of YES in human PC3 cell lysates at 10 uM using desthiobiotin-tagged ATP probe AX9989 followed by trypsinization by LC/MS analysis.
The target in assay [3] is Proto-oncogene tyrosine-protein kinase Src (Homo sapiens) (UniProt P12931). The assay can be described thus: Inhibition of SRC in human PC3 cell lysates at 10 uM using desthiobiotin-tagged ATP probe AX9989 followed by trypsinization by LC/MS analysis.
In assay [4] the target is Ephrin type-A receptor 2 (Homo sapiens) (UniProt P29317). The assay can be described thus: Inhibition of EphA2 in human PC3 cell lysates at 10 uM using desthiobiotin-tagged ATP probe AX9989 followed by trypsinization by LC/MS analysis.
Assay [5] concerns the target DNA-dependent protein kinase catalytic subunit (Homo sapiens) (UniProt P78527). Nature of the assay: Inhibition of DNAPK in human PC3 cell lysates at 10 uM using desthiobiotin-tagged ATP probe AX9989 followed by trypsinization by LC/MS analysis.
Assay [6] deals with T1, Serine/threonine-protein kinase STK11 (Homo sapiens) (UniProt Q15831).
T1 sequence (whole entry): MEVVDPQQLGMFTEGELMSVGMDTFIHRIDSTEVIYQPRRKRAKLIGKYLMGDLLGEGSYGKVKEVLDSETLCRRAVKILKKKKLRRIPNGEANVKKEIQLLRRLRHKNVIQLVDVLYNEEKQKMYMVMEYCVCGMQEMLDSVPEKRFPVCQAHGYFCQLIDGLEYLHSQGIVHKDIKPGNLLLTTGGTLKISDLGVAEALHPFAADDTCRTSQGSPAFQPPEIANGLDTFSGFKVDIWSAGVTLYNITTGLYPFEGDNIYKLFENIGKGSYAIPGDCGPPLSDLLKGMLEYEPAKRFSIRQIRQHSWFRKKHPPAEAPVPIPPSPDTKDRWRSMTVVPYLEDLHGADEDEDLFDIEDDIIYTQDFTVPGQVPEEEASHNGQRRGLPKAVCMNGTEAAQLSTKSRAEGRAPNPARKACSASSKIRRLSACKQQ
Nature of the assay: Inhibition of LKB1 in human PC3 cell lysates at 10 uM using desthiobiotin-tagged ATP probe AX9989 followed by trypsinization by LC/MS analysis.

Assay [7] deals with PI4KA/PI4KAP2 (Homo sapiens) (UniProt P42356+A4QPH2). The assay can be described thus: Inhibition of PI4KA/PI4KAP2 in human PC3 cell lysates at 10 uM using desthiobiotin-tagged ATP probe AX9989 followed by trypsinization by LC/MS analysis. It is filed as protein-complex assay.
Assay [8] addresses p38 delta/gamma (Homo sapiens) (UniProt O15264+P53778). The assay can be described thus: Inhibition of p38delta/gamma in human PC3 cell lysates at 10 uM using desthiobiotin-tagged ATP probe AX9989 followed by trypsinization by LC/MS analysis. It is filed as protein assay.
The target in assay [9] is Glycogen synthase kinase-3 beta (Homo sapiens) (UniProt P49841). The assay can be described thus: Inhibition of GSK3beta in human PC3 cell lysates at 10 uM using desthiobiotin-tagged ATP probe AX9989 followed by trypsinization by LC/MS analysis.
Assay [10] addresses STE20-like serine/threonine-protein kinase (Homo sapiens) (UniProt Q9H2G2). Nature of the assay: Inhibition of SLK in human PC3 cell lysates at 10 uM using desthiobiotin-tagged ATP probe AX9989 followed by trypsinization by LC/MS analysis.
Assay [11] addresses Macrophage-stimulating protein receptor (Homo sapiens) (UniProt Q04912). The assay can be described thus: Inhibition of RON in human PC3 cell lysates at 10 uM using desthiobiotin-tagged ATP probe AX9989 followed by trypsinization by LC/MS analysis.
The target in assay [12] is Cyclin-dependent kinase 9 (Homo sapiens) (UniProt P50750). The assay can be described thus: Inhibition of CDK9 in human PC3 cell lysates at 10 uM using desthiobiotin-tagged ATP probe AX9989 followed by trypsinization by LC/MS analysis.
Assay [13] addresses Serine/threonine-protein kinase 25 (Homo sapiens) (UniProt O00506). The assay can be described thus: Inhibition of YSK1 in human PC3 cell lysates at 10 uM using desthiobiotin-tagged ATP probe AX9989 followed by trypsinization by LC/MS analysis.
Assay [14] addresses Serine/threonine-protein kinase 26 (Homo sapiens) (UniProt Q9P289). The assay can be described thus: Inhibition of MST4 in human PC3 cell lysates at 10 uM using desthiobiotin-tagged ATP probe AX9989 followed by trypsinization by LC/MS analysis.
The target of assay [15] is T2, Serine/threonine-protein kinase 3 (Homo sapiens) (UniProt Q13188).
T2 sequence (whole entry): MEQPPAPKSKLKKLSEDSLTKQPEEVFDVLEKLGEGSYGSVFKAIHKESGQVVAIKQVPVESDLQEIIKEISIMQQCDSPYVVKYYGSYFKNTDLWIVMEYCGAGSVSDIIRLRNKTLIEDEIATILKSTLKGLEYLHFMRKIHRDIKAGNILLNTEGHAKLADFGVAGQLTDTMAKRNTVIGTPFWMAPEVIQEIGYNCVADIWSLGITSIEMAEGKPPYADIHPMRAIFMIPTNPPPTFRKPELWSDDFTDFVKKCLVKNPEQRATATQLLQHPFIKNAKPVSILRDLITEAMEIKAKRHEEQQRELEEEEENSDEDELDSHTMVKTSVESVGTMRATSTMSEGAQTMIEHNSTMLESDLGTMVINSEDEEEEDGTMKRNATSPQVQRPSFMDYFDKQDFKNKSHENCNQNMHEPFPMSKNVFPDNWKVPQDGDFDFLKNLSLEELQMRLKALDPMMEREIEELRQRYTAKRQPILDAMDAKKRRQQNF
The assay can be described thus: Inhibition of MST2 in human PC3 cell lysates at 10 uM using desthiobiotin-tagged ATP probe AX9989 followed by trypsinization by LC/MS analysis.

The target in assay [16] is Hepatocyte growth factor receptor (Homo sapiens) (UniProt P08581). Nature of the assay: Inhibition of MET in human PC3 cell lysates at 10 uM using desthiobiotin-tagged ATP probe AX9989 followed by trypsinization by LC/MS analysis.

Glycogen synthase kinase-3 beta (Homo sapiens), sequence (P49841 whole entry, looked up): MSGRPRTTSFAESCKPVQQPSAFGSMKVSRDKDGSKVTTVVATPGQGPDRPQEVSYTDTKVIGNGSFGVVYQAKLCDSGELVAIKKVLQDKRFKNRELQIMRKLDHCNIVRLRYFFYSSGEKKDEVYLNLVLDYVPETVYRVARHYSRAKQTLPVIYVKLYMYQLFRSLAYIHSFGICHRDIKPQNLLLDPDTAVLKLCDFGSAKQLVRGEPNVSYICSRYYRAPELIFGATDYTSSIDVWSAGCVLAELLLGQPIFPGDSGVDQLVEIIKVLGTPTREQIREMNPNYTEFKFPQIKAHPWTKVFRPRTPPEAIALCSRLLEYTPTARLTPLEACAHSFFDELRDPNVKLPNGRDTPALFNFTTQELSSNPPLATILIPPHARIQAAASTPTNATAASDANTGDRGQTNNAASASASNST
DNA-dependent protein kinase catalytic subunit (Homo sapiens), sequence (P78527 whole entry): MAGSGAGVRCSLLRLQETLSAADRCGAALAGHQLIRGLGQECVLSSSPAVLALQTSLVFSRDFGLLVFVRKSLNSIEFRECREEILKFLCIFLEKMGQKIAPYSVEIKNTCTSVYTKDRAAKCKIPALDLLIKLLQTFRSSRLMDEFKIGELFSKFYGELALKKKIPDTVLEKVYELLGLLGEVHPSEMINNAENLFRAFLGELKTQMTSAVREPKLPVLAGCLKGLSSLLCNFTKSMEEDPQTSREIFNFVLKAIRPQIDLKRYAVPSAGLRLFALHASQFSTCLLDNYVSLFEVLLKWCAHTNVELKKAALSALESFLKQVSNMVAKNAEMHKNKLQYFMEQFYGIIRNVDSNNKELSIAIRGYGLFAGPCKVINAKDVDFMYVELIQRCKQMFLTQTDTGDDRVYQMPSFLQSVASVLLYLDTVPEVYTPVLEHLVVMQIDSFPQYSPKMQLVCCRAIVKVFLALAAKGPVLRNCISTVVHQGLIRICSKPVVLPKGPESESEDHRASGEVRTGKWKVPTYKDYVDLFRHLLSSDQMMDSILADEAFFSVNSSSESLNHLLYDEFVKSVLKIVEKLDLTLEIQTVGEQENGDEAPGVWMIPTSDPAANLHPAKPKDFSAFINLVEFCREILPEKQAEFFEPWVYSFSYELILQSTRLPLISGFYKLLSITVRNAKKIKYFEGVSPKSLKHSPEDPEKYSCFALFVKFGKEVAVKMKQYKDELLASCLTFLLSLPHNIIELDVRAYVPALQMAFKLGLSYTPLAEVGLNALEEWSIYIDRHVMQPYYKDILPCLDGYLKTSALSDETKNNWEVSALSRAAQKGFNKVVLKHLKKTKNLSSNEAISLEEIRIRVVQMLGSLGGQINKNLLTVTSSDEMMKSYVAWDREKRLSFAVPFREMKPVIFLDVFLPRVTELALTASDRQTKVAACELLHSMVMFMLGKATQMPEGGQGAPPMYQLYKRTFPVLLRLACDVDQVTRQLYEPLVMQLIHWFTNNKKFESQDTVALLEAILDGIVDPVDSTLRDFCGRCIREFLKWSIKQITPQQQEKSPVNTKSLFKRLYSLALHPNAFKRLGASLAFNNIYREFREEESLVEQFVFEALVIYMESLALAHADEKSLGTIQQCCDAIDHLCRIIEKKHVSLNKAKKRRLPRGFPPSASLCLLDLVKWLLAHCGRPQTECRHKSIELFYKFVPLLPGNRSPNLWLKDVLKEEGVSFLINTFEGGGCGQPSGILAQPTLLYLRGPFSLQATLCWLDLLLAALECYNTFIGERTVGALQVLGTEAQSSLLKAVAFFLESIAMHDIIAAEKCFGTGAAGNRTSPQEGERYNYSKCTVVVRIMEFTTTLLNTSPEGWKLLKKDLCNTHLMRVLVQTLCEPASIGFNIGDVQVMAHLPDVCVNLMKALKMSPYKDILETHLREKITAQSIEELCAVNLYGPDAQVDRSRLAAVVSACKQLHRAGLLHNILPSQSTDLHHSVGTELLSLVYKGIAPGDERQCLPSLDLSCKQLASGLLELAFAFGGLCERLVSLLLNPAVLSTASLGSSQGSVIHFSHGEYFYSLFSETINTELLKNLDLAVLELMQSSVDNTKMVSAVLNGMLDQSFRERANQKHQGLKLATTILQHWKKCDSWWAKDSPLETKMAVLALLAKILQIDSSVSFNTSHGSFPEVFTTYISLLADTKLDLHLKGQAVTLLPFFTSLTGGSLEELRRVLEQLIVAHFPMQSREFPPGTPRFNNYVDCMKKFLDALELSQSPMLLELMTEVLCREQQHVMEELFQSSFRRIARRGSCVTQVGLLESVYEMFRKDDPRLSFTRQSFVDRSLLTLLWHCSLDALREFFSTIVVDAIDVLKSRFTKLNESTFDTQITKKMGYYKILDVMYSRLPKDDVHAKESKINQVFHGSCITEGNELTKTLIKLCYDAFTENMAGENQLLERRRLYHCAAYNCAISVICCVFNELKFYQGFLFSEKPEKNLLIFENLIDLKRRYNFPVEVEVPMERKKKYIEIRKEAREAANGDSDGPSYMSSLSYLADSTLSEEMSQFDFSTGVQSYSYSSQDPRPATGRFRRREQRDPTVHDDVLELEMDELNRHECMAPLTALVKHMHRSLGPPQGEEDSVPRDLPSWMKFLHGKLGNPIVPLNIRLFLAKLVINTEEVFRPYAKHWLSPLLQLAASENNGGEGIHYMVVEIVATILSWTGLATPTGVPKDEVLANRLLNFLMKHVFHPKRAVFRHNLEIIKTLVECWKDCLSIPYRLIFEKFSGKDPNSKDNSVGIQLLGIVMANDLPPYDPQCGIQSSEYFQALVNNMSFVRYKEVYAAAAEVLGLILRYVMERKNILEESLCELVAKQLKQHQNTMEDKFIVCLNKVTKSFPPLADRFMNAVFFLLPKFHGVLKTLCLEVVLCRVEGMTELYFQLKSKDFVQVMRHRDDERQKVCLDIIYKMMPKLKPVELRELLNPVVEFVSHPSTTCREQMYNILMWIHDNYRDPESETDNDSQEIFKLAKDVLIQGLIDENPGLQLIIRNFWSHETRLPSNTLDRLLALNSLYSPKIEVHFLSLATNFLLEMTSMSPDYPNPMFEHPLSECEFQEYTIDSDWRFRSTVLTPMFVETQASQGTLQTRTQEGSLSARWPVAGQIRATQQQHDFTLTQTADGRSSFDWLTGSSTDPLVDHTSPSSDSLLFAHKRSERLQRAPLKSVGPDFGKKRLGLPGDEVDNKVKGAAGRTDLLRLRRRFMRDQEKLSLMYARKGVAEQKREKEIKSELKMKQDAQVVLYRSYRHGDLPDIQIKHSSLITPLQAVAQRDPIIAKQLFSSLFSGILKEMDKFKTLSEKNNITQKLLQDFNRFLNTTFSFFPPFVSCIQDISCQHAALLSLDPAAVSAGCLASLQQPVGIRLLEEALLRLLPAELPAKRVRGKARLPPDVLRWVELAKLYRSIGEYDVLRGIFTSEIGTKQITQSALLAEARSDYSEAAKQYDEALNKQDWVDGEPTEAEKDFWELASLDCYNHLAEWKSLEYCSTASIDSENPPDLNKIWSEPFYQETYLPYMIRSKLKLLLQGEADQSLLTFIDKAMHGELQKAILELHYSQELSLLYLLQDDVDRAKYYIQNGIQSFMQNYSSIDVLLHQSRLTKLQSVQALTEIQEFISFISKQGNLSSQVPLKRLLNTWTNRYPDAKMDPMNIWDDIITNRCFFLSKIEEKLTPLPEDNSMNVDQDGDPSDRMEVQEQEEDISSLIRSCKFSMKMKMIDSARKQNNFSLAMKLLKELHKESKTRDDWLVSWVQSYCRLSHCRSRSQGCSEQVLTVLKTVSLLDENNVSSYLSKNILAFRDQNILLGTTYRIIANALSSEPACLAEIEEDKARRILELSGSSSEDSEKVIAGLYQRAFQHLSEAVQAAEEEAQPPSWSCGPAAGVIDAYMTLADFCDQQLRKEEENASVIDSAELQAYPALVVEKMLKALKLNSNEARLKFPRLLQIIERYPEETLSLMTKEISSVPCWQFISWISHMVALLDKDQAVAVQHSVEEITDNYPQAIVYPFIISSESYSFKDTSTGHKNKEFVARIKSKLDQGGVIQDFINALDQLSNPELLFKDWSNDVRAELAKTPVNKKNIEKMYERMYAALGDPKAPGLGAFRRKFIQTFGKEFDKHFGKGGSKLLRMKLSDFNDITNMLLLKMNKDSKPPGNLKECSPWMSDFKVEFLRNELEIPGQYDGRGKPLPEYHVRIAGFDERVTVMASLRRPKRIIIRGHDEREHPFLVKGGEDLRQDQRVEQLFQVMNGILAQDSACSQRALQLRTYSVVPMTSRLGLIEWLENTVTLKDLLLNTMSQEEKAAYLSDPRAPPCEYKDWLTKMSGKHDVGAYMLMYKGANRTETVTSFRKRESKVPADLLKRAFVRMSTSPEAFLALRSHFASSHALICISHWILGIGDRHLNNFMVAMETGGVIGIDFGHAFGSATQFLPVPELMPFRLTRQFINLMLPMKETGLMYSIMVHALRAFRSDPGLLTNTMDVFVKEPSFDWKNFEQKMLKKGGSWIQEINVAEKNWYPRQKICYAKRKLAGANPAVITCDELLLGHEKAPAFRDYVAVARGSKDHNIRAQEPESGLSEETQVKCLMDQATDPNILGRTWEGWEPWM
Serine/threonine-protein kinase 26 (Homo sapiens), sequence (Q9P289 2-416 limits assumed): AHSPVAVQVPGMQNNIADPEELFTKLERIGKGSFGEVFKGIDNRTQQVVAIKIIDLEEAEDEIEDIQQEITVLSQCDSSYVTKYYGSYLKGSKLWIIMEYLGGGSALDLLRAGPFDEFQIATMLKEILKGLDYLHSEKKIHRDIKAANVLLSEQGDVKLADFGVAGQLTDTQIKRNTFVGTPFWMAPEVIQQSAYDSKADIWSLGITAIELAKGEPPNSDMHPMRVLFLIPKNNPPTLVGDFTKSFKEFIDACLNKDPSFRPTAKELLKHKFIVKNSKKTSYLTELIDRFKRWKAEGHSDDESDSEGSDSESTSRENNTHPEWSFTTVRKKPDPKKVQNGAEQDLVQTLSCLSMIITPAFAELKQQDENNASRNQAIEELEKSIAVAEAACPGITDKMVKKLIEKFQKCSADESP

For orientation: inhibition means how much of the control response was suppressed. The low end stands for a response near the control, the high end for a response far below the control. Regarding `NC(=O)c1ccc2nc(N[C@H]3CC[C@H](O)CC3)c3nccn3c2c1`, the inhibition in [1], in assay [2], in assay [3], in [4], in [5] and in [6] was less than 35% each time. Also, the inhibition is less than 35% in assay [7]; 44.4% in assay [8]; 96% in assay [9]; less than 35% in assay [10]; less than 35% in assay [11]; 98.6% in [12]. In addition, the inhibition in assay [13], in [14], in assay [15] and in assay [16] was less than 35% throughout.

For `CC(C)(NC(=O)c1ccc2nc(N[C@H]3CC[C@H](O)CC3)c3nccn3c2c1)c1ccccc1`, the inhibition in [1], in assay [2], in [3], in assay [4], in assay [5] and in [6] was less than 35% each time. Further, the inhibition in [7], in [8], in [9], in assay [10], in assay [11] and in assay [12] was less than 35% each time. For the same molecule, the inhibition in [13], in assay [14], in assay [15] and in assay [16] was less than 35% throughout.

`O=C(NC1(c2ccccc2)CCC1)c1ccc2nc(N[C@H]3CC[C@H](O)CC3)c3nccn3c2c1`: the inhibition in assay [1], in [2], in assay [3], in [4], in assay [5] and in [6] was less than 35% each time. The inhibition is less than 35% in assay [7]; less than 35% in [8]; less than 35% in [9]; less than 35% in assay [10]; less than 35% in [11]; 49.8% in [12]. Further, the inhibition in assay [13], in [14], in [15] and in [16] was less than 35% each time.

Take `O=C(NC1(Cc2ccc(F)cc2)CC1)c1ccc2nc(N[C@H]3CC[C@H](O)CC3)c3nccn3c2c1`: the inhibition in [1], in [2], in assay [3], in assay [4], in assay [5] and in assay [6] was less than 35% each time. The inhibition in assay [7], in assay [8], in [9], in [10], in [11] and in assay [12] was less than 35% throughout. Also, the inhibition in [13], in [14], in assay [15] and in assay [16] was less than 35% each time.
